One block for each compound: values may come before it.
Experiments:
Type in all cases: binding
[1] = target: T1, human islet amyloid polypeptide (wt hIAPP) (Homo sapiens, UniProt P10997); test: Tyr37 fluorescence quenching titration; also SPR (Kd […]) and native ESI-MS/CID; known inhibitor used as control
T1 construct: gene IAPP; 37-residue synthetic peptide, amidated C-terminus, Cys-2/Cys-7 disulfide, monomeric
T1 sequence (P10997 34-70 limits assumed): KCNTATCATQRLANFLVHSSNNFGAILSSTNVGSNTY

[2] = target: T1, human islet amyloid polypeptide (wt hIAPP); test: Tyr37 fluorescence quenching and native ESI-MS (weak adduct); ThT acceleration of aggregation; no SPR response, no significant NMR CSPs
[3] = target: T1, human islet amyloid polypeptide (wt hIAPP); test: Tyr37 fluorescence quenching titration; also native ESI-MS, SPR (Kd […]), 2D NMR CSPs and ThT aggregation inhibition

- Kd [1]: 13 µM
Structure (SMILES): O=C(O[C@@H]1Cc2c(O)cc(O)cc2O[C@@H]1c1cc(O)c(O)c(O)c1)c1cc(O)c(O)c(O)c1 [EGCG]

- Kd [2]: ~280 µM
Structure (SMILES): O=C(Nc1ccccc1F)c1cnc(-c2ccccc2)nc1CCNC(=O)C1CCCCC1 [YX-A-1]

- Kd [3]: 32 µM
Structure (SMILES): CC(=O)N[C@H]1C[C@@H](c2ccc(NC(=O)Cn3nnc4ccccc43)cc2)O[C@@H](C(C)C)C1 [YX-I-1]

Source: PMC8873464, “Tuning the rate of aggregation of hIAPP into amyloid using small-molecule modulators of assembly” (Nature Communications, 2022)
